Reference: patent US20260041649A1, “ANTI-INFLAMMATORY AGENT” (WATANABE OYSTER LABORATORY, CO., LTD., priority 2023, published 2026)

Test system: mouse macrophage RAW264.7 cells
Experiment: Western blotting of cytokine signalling proteins with or without LPS
Assay type: cell-based
Conditions: DHMBA 10 μM, 5 hours
Procedure: Cells (1×10^6 cells/10 ml of medium) were cultured in a DMEM culture medium for 3 days until they reached subconfluence. After that, cells were cultured for another 5 hours in the control group (1% ethanol; DHMBA 0 M) and in the DHMBA-treated group (10 μM) with or without of LPS (100 ng/ml). After the culture, cell lysates were obtained for Western blot assay using specific antibodies against COX-1, COX-2, MAPK, phospho-MAPK, NF-κB p65, STAT3, and β-actin, as shown in FIG. 3.
Band intensities are presented as fold increase over the controls, under the following conditions: no LPS (FIG. 8B), LPS (100 ng/ml) alone (FIG. 8C), and LPS (100 ng/ml) plus DHMBA (10 μM) (FIG. 8D). Data are presented as the mean±SD of values obtained from 4 dishes using different cell preparations. *: Significant difference (p<0.01) versus the control without LPS (FIG. 8C). *: Significant difference (p<0.01) versus the control with LPS but without DHMBA (FIG. 8D). Statistical analysis was performed using 1-way ANOVA with Tukey-Kramer post-test.
To measure the expression levels of Cox-1, Cox-2, NF-κB p65, and STAT3, which are involved in cytokine signaling, RAW264.7 cells (1×10^6 cells/10 ml of 100 mm dish) were cultured in a DMEM culture medium containing 10% FS, 1% P/S, and 1% fungizone for 3 days until they reached subconfluence, and then cultured for another 5 hours in the control group (1% ethanol; DHMBA 0 μM as final concentration) and in the DHMBA-treated group (10 μM) with or without LPS (100 ng/ml in the medium). After the culture, the cells attached to the dish were scraped off with a cell lysis buffer and collected for measurement as described in the “Western blotting” section.
RAW264.7 cells (1×10^6 cells/10 ml of 100 mm dish) were cultured for 3 days in 10% FBS, 1% P/S (1% ethanol), or in the DHMBA-treated group (10 μM). After the culture, the dishes were washed with cold PBS (10 ml) to remove floating and dead cells. The cell lysis buffer (Cell Signaling Technology, Inc., Danvers, MA, USA) supplemented with protease/protein phosphatase inhibitor (Roche Diagnostics, Indianapolis, IN, USA) was added to the cells to collect cell lysates of the adherent cells as described in the previous study. The cell lysates were centrifuged at 17,000×g, 4° C. for 10 min. Protein concentrations in the supernatants were measured using Bio-Rad Protein Assay Dye (Bio-Rad Laboratories, Inc., Hercules, CA, USA) with bovine serum albumin as a standard. The cell lysates were stored at −80° C. until use. The supernatant proteins (40 μg/lane) were separated by SDS-polyacrylamide gel electrophoresis (12% SDS-PAGE) and transferred to a PVDF membrane. The transferred membranes were immunoblotted with specific antibodies against various proteins, including Ras (cat. no. 3339, rabbit), Akt (cat. no. 9272, rabbit), mitogen-activated protein kinase (MAPK; cat. no. 4695, rabbit), phosphorylated MAPK (cat. no. 4370, rabbit), mechanistic target of rapamycin (mTOR; cat. no. 4517, mouse), Rb (cat. no. 9309, mouse), p21 (cat. no. 2947, rabbit), STAT3 (cat. no. 12640, rabbit), COX-1 (cat. no. 48415), COX-2 (cat. no. 4842), and β-actin (cat. no. 3700, mouse), all of which were purchased from Cell Signaling Technology, Inc. (Danvers, MA, USA). Specific antibodies for p53 (cat. no. sc-126, mouse) and NF-κB p65 (cat. no. sc-109, rabbit) were purchased from Santa Cruz Biotechnology Inc. (Santa Cruz, CA, USA). Additionally, rabbit anti-regucalcin antibody (cat. no. HPA029103, rabbit) was obtained from Sigma-Aldrich. Target proteins were incubated overnight at 4° C. with one of the above primary antibodies (1:1,000). After incubation, the membranes were further incubated with horseradish peroxidase-conjugated secondary antibodies (Santa Cruz Biotechnology Inc., cat. no. sc-2005 (mouse) or sc-2305 (rabbit); dilution 1:2000) for 60 min at room temperature, and protein bands were detected using chemiluminescence substrates (cat. no. 34577, Thermo Fisher Scientific Inc., Rockford, IL, USA) on X-ray films. […]

COc1c(O)cc(CO)cc1O [DHMBA, 3,5-dihydroxy-4-methoxybenzyl alcohol]
LPS-increased level of MAPK (LPS 100 ng/ml): suppressed | LPS-increased level of NF-κB p65 (LPS 100 ng/ml): suppressed | LPS-increased level of STAT3 (LPS 100 ng/ml): suppressed | LPS-increased level of phospho-MAPK (LPS 100 ng/ml): suppressed | level of COX-1 (without LPS): not altered | level of COX-2 (without LPS): not altered | level of MAPK (without LPS): not altered | level of NF-κB p65 (without LPS): not altered | level of STAT3 (without LPS): not altered | level of phospho-MAPK (without LPS): not altered
